Assay results as given in patent publication US6896895B2, “Carotenoid esters, carotenoid-enriched feeds, and methods of pigmenting foods and foodstuffs” (DSM IP Assets B.V., priority 2000, dated 2005).

Key:
[1] = tested on: skin and shanks of broilers; assay: Reflectance colorimetry and visual classification of skin and shanks of broilers; format: in vivo, broiler chickens (Ross 308, Ross 508); parameters: key to Shanks Visual Classification / Skin Visual Classification: −; (+); +; ++ = good color; o = orange; settings: for Shanks Chroma C*ab % of Controls / Shanks Color Hue h*ab % of Controls / Skin Chroma C*ab % of Controls / Skin Color Hue h*ab % of Controls / Shanks Chroma C*ab Value / Shanks Color Hue h*ab Value / Shanks Visual Classification / Skin Chroma C*ab Value / Skin Color Hue h*ab Value / Skin Visual Classification: dry carcasses
Procedure, shortened: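 Ross broilers were fed a low-carotenoid basal diet (<2 mg xanthophylls/kg), then received pigment-supplemented diet for three weeks and were slaughtered on day 44. Back-skin colour (mean of three points) and shank colour (single reading) were measured by Minolta chromameter (D65, 0°) and reported as CIE L*a*b*, h* and C*, averaged over ten birds (5 male, 5 female).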

[2] = Carotenoid ester content and deposition rate in egg yolk of laying hens (HPLC); format: in vivo, laying hens (ISA Brown); parameters: Deposition Rate Value: unit not given here; settings: for Deposition Rate Target Values % of Controls / Ethyl β-apo-8′-carotenoate Equivalents % of Controls / Deposition Rate % of Controls / Deposition Rate Target Values / Ethyl β-apo-8′-carotenoate Equivalents / Deposition Rate Value: egg yolk; for Deposition Rate % of Controls / Deposition Rate Value: Table 9
Procedure, shortened: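 Hens were first depleted for at least 28 days on a low-carotenoid basal diet (<2 mg total xanthophylls/kg, also the control diet), then fed mash supplemented with the pigments ad libitum for three weeks. Pooled homogenised yolk was extracted with ethanol/n-hexane and analysed by HPLC, calibrated with all-E ethyl β-apo-8′-carotenoate. Response factors were adjusted by molecular weight, and Z-isomers were corrected by a factor of 1.4.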

[3] = trial MC-11/99, 13.33 mg/kg feed

CC1=C(/C=C/C(C)=C/C=C/C(C)=C/C=C/C=C(C)/C=C/C=C(\C)C(=O)OC(C)C)C(C)(C)CCC1 [compound (17), isopropyl beta-apo-8′-carotenoate]
Shanks Chroma C*ab % of Controls ([1]; average over doses, Table 5): 115% | Shanks Color Hue h*ab % of Controls ([1]; average over doses, Table 5): 99% | Skin Chroma C*ab % of Controls ([1]; average over doses, Table 5): 113% | Skin Color Hue h*ab % of Controls ([1]; average over doses, Table 5): 102% | Shanks Chroma C*ab % of Controls [1, 3]: 97% | Shanks Chroma C*ab Value [1, 3]: 70 | Shanks Color Hue h*ab % of Controls [1, 3]: 99% | Shanks Color Hue h*ab Value [1, 3]: 84 | Shanks Visual Classification [1, 3]: (+) | Skin Chroma C*ab % of Controls [1, 3]: 116% | Skin Chroma C*ab Value [1, 3]: 29 | Skin Color Hue h*ab % of Controls [1, 3]: 105% | Skin Color Hue h*ab Value [1, 3]: 77 | Skin Visual Classification [1, 3]: (+) | Shanks Chroma C*ab % of Controls ([1]; trial MC-11/99, 20 mg/kg feed): 125% | Shanks Chroma C*ab Value ([1]; trial MC-11/99, 20 mg/kg feed): 59 | Shanks Color Hue h*ab % of Controls ([1]; trial MC-11/99, 20 mg/kg feed): 103% | Shanks Color Hue h*ab Value ([1]; trial MC-11/99, 20 mg/kg feed): 87 | Shanks Visual Classification ([1]; trial MC-11/99, 20 mg/kg feed): + | Skin Chroma C*ab % of Controls ([1]; trial MC-11/99, 20 mg/kg feed): 106% | Skin Chroma C*ab Value ([1]; trial MC-11/99, 20 mg/kg feed): 33 | Skin Color Hue h*ab % of Controls ([1]; trial MC-11/99, 20 mg/kg feed): 100% | Skin Color Hue h*ab Value ([1]; trial MC-11/99, 20 mg/kg feed): 78 | Skin Visual Classification ([1]; trial MC-11/99, 20 mg/kg feed): + | Shanks Chroma C*ab % of Controls ([1]; trial MC-11/99, 30 mg/kg feed): 108% | Shanks Chroma C*ab Value ([1]; trial MC-11/99, 30 mg/kg feed): 65 | Shanks Color Hue h*ab % of Controls ([1]; trial MC-11/99, 30 mg/kg feed): 97% | Shanks Color Hue h*ab Value ([1]; trial MC-11/99, 30 mg/kg feed): 83 | Shanks Visual Classification ([1]; trial MC-11/99, 30 mg/kg feed): + | Skin Chroma C*ab % of Controls ([1]; trial MC-11/99, 30 mg/kg feed): 119% | Skin Chroma C*ab Value ([1]; trial MC-11/99, 30 mg/kg feed): 40 | Skin Color Hue h*ab % of Controls ([1]; trial MC-11/99, 30 mg/kg feed): 102% | Skin Color Hue h*ab Value ([1]; trial MC-11/99, 30 mg/kg feed): 79 | Skin Visual Classification ([1]; trial MC-11/99, 30 mg/kg feed): + | Shanks Chroma C*ab % of Controls ([1]; trial MC-11/99, 45 mg/kg feed): 108% | Shanks Chroma C*ab Value ([1]; trial MC-11/99, 45 mg/kg feed): 71 | Shanks Color Hue h*ab % of Controls ([1]; trial MC-11/99, 45 mg/kg feed): 101% | Shanks Color Hue h*ab Value ([1]; trial MC-11/99, 45 mg/kg feed): 84 | Shanks Visual Classification ([1]; trial MC-11/99, 45 mg/kg feed): ++(o) | Skin Chroma C*ab % of Controls ([1]; trial MC-11/99, 45 mg/kg feed): 105% | Skin Chroma C*ab Value ([1]; trial MC-11/99, 45 mg/kg feed): 44 | Skin Color Hue h*ab % of Controls ([1]; trial MC-11/99, 45 mg/kg feed): 103% | Skin Color Hue h*ab Value ([1]; trial MC-11/99, 45 mg/kg feed): 79 | Skin Visual Classification ([1]; trial MC-11/99, 45 mg/kg feed): ++ | Shanks Chroma C*ab % of Controls ([1]; trial MC-24/98, 30 mg/kg feed): 137% | Shanks Chroma C*ab Value ([1]; trial MC-24/98, 30 mg/kg feed): 71 | Shanks Color Hue h*ab % of Controls ([1]; trial MC-24/98, 30 mg/kg feed): 93% | Shanks Color Hue h*ab Value ([1]; trial MC-24/98, 30 mg/kg feed): 80 | Shanks Visual Classification ([1]; trial MC-24/98, 30 mg/kg feed): + | Skin Chroma C*ab % of Controls ([1]; trial MC-24/98, 30 mg/kg feed): 119% | Skin Chroma C*ab Value ([1]; trial MC-24/98, 30 mg/kg feed): 39 | Skin Color Hue h*ab % of Controls ([1]; trial MC-24/98, 30 mg/kg feed): 102% | Skin Color Hue h*ab Value ([1]; trial MC-24/98, 30 mg/kg feed): 82 | Skin Visual Classification ([1]; trial MC-24/98, 30 mg/kg feed): + | chroma C*a*b* values in the skin and in the shanks ([1]; versus the control): substantially enhanced | color hue h*a*b* in the skin and in the shanks ([1]; versus the control): not significantly changed | effectiveness in terms of concentration in the skin, and color intensity (chroma C*a*b*) in the skin and shanks ([1]; versus the control): significantly more effective | Deposition Rate Target Values % of Controls ([2]; average over doses, Table 7): 101% | Ethyl β-apo-8′-carotenoate Equivalents % of Controls ([2]; average over doses, Table 7): 91% | Deposition Rate % of Controls ([2]; average over doses): 101% | Deposition Rate Target Values ([2]; trial H-12/99, 1.0 mg/kg feed): 44% | Deposition Rate Target Values % of Controls ([2]; trial H-12/99, 1.0 mg/kg feed): 97% | Ethyl β-apo-8′-carotenoate Equivalents ([2]; trial H-12/99, 1.0 mg/kg feed): 2.6 mg/kg | Ethyl β-apo-8′-carotenoate Equivalents % of Controls ([2]; trial H-12/99, 1.0 mg/kg feed): 97% | Deposition Rate % of Controls ([2]; trial H-12/99, 1.0 mg/kg feed): 97% | Deposition Rate Value ([2]; trial H-12/99, 1.0 mg/kg feed): 44 | Deposition Rate Target Values ([2]; trial H-12/99, 2.0 mg/kg feed): 44% | Deposition Rate Target Values % of Controls ([2]; trial H-12/99, 2.0 mg/kg feed): 100% | Ethyl β-apo-8′-carotenoate Equivalents ([2]; trial H-12/99, 2.0 mg/kg feed): 5.2 mg/kg | Ethyl β-apo-8′-carotenoate Equivalents % of Controls ([2]; trial H-12/99, 2.0 mg/kg feed): 94% | Deposition Rate % of Controls ([2]; trial H-12/99, 2.0 mg/kg feed): 100% | Deposition Rate Value ([2]; trial H-12/99, 2.0 mg/kg feed): 44 | Deposition Rate Target Values ([2]; trial H-12/99, 4.0 mg/kg feed): 42% | Deposition Rate Target Values % of Controls ([2]; trial H-12/99, 4.0 mg/kg feed): 85% | Ethyl β-apo-8′-carotenoate Equivalents ([2]; trial H-12/99, 4.0 mg/kg feed): 9.6 mg/kg | Ethyl β-apo-8′-carotenoate Equivalents % of Controls ([2]; trial H-12/99, 4.0 mg/kg feed): 81% | Deposition Rate % of Controls ([2]; trial H-12/99, 4.0 mg/kg feed): 85% | Deposition Rate Value ([2]; trial H-12/99, 4.0 mg/kg feed): 42 | Deposition Rate Target Values ([2]; trial H-12/99, 8.0 mg/kg feed): 49% | Deposition Rate Target Values % of Controls ([2]; trial H-12/99, 8.0 mg/kg feed): 104% | Ethyl β-apo-8′-carotenoate Equivalents ([2]; trial H-12/99, 8.0 mg/kg feed): 23.1 mg/kg | Ethyl β-apo-8′-carotenoate Equivalents % of Controls ([2]; trial H-12/99, 8.0 mg/kg feed): 96% | Deposition Rate % of Controls ([2]; trial H-12/99, 8.0 mg/kg feed): 104% | Deposition Rate Value ([2]; trial H-12/99, 8.0 mg/kg feed): 49 | Deposition Rate Target Values ([2]; trial H-19/98, 4.0 mg/kg feed): 54% | Deposition Rate Target Values % of Controls ([2]; trial H-19/98, 4.0 mg/kg feed): 117% | Ethyl β-apo-8′-carotenoate Equivalents ([2]; trial H-19/98, 4.0 mg/kg feed): 11.1 mg/kg | Ethyl β-apo-8′-carotenoate Equivalents % of Controls ([2]; trial H-19/98, 4.0 mg/kg feed): 95% | Deposition Rate % of Controls ([2]; trial H-19/98, 4.0 mg/kg feed): 117% | Deposition Rate Value ([2]; trial H-19/98, 4.0 mg/kg feed): 54 | Deposition Rate % of Controls ([2]; trial H-25/98, 5.0 mg/kg feed): 106% | Deposition Rate Value ([2]; trial H-25/98, 5.0 mg/kg feed): 50 | Deposition Rate Target Values ([2]; trial H-25/99, 5.0 mg/kg feed): 50% | Deposition Rate Target Values % of Controls ([2]; trial H-25/99, 5.0 mg/kg feed): 100% | Ethyl β-apo-8′-carotenoate Equivalents ([2]; trial H-25/99, 5.0 mg/kg feed): 13.3 mg/kg | Ethyl β-apo-8′-carotenoate Equivalents % of Controls ([2]; trial H-25/99, 5.0 mg/kg feed): 84% | concentration in the egg yolk ([2]; versus the control): in the range of the control
